Reference: patent US8217164B2, “Use of a lactose-derived C-glycoside compound as an agent for activating and regulating cutaneous immunity” (L'Oreal, priority 2006, dated 2012)

Test system: human peripheral blood cells (lymphocyte proliferation)
Assay: Immunostimulant activity: lymphocyte proliferation by BrdU labelling
Type: cell-based
Conditions: 10 to 0.05 mM, 3 days of culture
Procedure: The immunostimulant activity is tested in the following way: human peripheral blood cells are cultured in the presence of an RPMI-type culture medium supplemented with L-glutamine (2 mM), penicillin/streptomycin (50 μg/50 IU/ml) and foetal calf serum (10%). The C-glycoside derivatives are added at various concentrations (10 to 0.05 mM), as is phytohaemagglutinin (PHA at 5*G/ml), a positive control for lymphocyte proliferation.

In the case of CC(=O)C[C@@H]1O[C@H](CO)[C@@H](OC2O[C@H](CO)[C@H](O)[C@H](O)[C@H]2O)[C@H](O)[C@H]1O (stereo partly shown) [Compound 2], the “human lymphocyte proliferation (immunostimulant activity)” value is reported as “tendency to stimulate human lymphocyte proliferation at all the concentrations tested”.
